This is an account of results in patent US20110172297A1, “Oxopiperdinyl And Pyranyl Sulfonamides and Pharmaceutical Compositions Thereof” (Pfizer Inc, priority 2008, published 2011).

For this test, the system named is AMPA receptors. The test is described as follows: AMPA ES cell FLIPR screen (AMPA Potentiator Assay). Conditions: murine ES cell-derived neurons, FLIPR Fluo-4 calcium signal, 32 uM AMPA challenge; values marked * are the geometric mean of 2-9 EC50 determinations. Format: cell-based. The procedure: The murine ES cell line used was E14-Sx1-16C, which has a targeted mutation in the Sox1 gene, a neuroectodermal marker, that offers G418 resistance when the Sox1 gene is expressed (Stem Cell Sciences). ES cells were maintained undifferentiated as previously described (Roach). […] ES cells were plated on gelatin-coated dishes (BD Biosciences), the media was changed daily and the cells were dissociated with 0.05% Trypsin EDTA (Invitrogen) every other day.
Embryoid Body Formation: Prior to embryoid body (EB) formation the ES cells were weaned from FBS onto Knockout Serum Replacement (KSR) (Invitrogen). To form EBs, ES cells were dissociated into a single cell suspension, then 3×10^6 cells were plated in bacteriology dishes (Nunc 4014) and grown as a suspension culture in NeuroEB-I medium that consisted of Knockout™ D-MEM (Invitrogen), supplemented with 10% KSR (Invitrogen), 0.2 mM L-Glutamine (Invitrogen), 0.1 mM MEM non-essential amino acids (Invitrogen), 30 μg/ml Gentamicin (Invitrogen), 1000 u/ml ESGRO (Chemicon), 0.1 mM 2-Mercaptoethanl (Sigma) and 150 ng/ml Transferrin (Invitrogen). The plates were put on a Stovall Belly Button shaker in an atmospheric oxygen incubator. The media was changed on day 2 of EB formation with NeuroEB-I and on day 4 with NeuroEB-II (NeuroEB-I plus 1 μg/ml mNoggin [R&D Systems]).
Neuronal Precursor Selection and Expansion: On day 5 of EB formation, EBs were dissociated with 0.05% Trypsin EDTA, and 4×10^6cells/100 mm dish were plated on Laminin coated tissue culture dishes in Neuroll-G418 medium that consisted of a base medium of a 1:1 mixture of D-MEM/F12 supplemented with N2 supplements and NeuroBasal Medium supplemented with B27 supplement and 0.1 mM L-Glutamine (all from Invitrogen). The base medium was then supplemented with 10 ng/ml bFGF (Invitrogen), 1 μg/ml mNoggin, 500 ng/ml SHH—N, 100 ng/ml FGF-8b (R&D Systems), 1 μg/ml Laminin and 200 μg/ml G418 (Invitrogen) for selection of neuronal precursors expressing Sox-1. The plates were put in an incubator that contained 2% Oxygen and were maintained in these conditions. During the 6-day selection period, the Neuroll media was changed daily. On day 6, the surviving neuronal precursor foci were dissociated with 0.05% Trypsin EDTA and the cells were plated at a density of 1.5×10^6 cells/100 mm Laminin coated dish in Neuroll-G418 medium. The cells were dissociated every other day for expansion, and prepared for Cryopreservation at passage 3 or 4. The crypreservation medium contained 50% KSR, 10% Dimethyl Sulfoxide (DMSO) (Sigma) and 40% Neurol-G418I medium. Neuronal precursors were crypreserved at a concentration of 4×10^6 cells/ml and 1 ml/cryovial in a controlled rate freezer overnight then transferred to an ultra-low freezer or liquid nitrogen for long-term storage.
Neuronal Differentiation: Cryopreserved ES cell-derived neuronal precursors were thawed by the rapid thaw method in a 37-degree water-bath. The cells were transferred from the cryovial to a 100 mm Laminin coated tissue culture dish that already contained Neuroll-G418 that had been equilibrated in a 2% Oxygen incubator. The media was changed with fresh Neuroll-G418 the next day. The cells were dissociated every other day as described above for expansion to generate enough cells to plate for the screen. For the screen, the cells were plated into 384-well poly-d-lysine coated tissue culture dishes (BD Biosciences) by the automated SelecT at a cell density of 6K cells/well in differentiation medium Neurolll that contained a 4:1 ratio of the NeuroBasalMedium/B27:D-MEM/F12/N2 supplemented with 1 μM cAMP (Sigma), 200 μM Ascorbic Acid (Sigma), 1 μg/ml Laminin (Invitrogen) and 10 ng/ml BDNF (R&D Systems). The plates were put in an incubator with 2% Oxygen and allowed to complete the differentiation process for 7 days. The cells could then be used over a 5-day period for the high throughput screen.
On the day of the assay, the FLIPR assay may be performed using the following methods: […]
One may read the EC50 as the concentration that produces a half-maximal response. As to `CC(C)S(=O)(=O)N[C@H]1CCOC[C@H]1c1ccc(-c2ccc(C#N)s2)cc1` [Example 1, N-{(3S,4S)-3-[4-(5-cyano-2-thienyl)phenyl]tetrahydro-2H-pyran-4-yl}propane-2-sulfonamide], the 50% effective concentration (EC50) came to 11 µM. In the case of `CC(C)S(=O)(=O)N[C@H]1CCOC[C@@H]1c1ccc(-c2ccccc2)cc1` [Example 2, N-[(3R,4S)-3-biphenyl-4-yltetrahydro-2H-pyran-4-yl]propane-2-sulfonamide], the EC50 is 0.365 µM. Regarding `CC(C)S(=O)(=O)N[C@H]1COCC[C@@]1(O)c1ccc(-c2ccccc2)cc1` [Example 3, N-[(3S,4R)-4-biphenyl-4-yl-4-hydroxytetrahydro-2H-pyran-3-yl]propane-2-sulfonamide], the half-maximal effective concentration (EC50) was determined as 4.3 µM. On to `CC(C)S(=O)(=O)N[C@@H]1COCC[C@]1(O)c1ccc(-c2ccccc2)cc1` [Example 4, N-[(3R,4S)-4-biphenyl-4-yl-4-hydroxytetrahydro-2H-pyran-3-yl]propane-2-sulfonamide], for which the EC50 is above 31.6 µM. As for `CC(C)S(=O)(=O)N[C@H]1COCC[C@]1(O)c1ccc(-c2ccccc2)cc1` [Example 5, N-[(3S,4S)-4-biphenyl-4-yl-4-hydroxytetrahydro-2H-pyran-3-yl]propane-2-sulfonamide], the concentration giving a half-maximal response (EC50) was 7.66 µM. For `CC(C)S(=O)(=O)N[C@@H]1COCC[C@@]1(O)c1ccc(-c2ccccc2)cc1` [Example 6, N-[(3R,4R)-4-biphenyl-4-yl-4-hydroxytetrahydro-2H-pyran-3-yl]propane-2-sulfonamide], the concentration giving a half-maximal response (EC50) is above 31.6 µM. For `CCOc1ccccc1-c1ccc([C@@H]2CCOC[C@H]2NS(=O)(=O)C(C)C)cc1` [Example 7, N-[(3S,4S)-4-(2′-ethoxybiphenyl-4-yl)tetrahydro-2H-pyran-3-yl]propane-2-sulfonamide] the value was above 31.6 µM; for `CCOc1ccccc1-c1ccc([C@H]2CCOC[C@@H]2NS(=O)(=O)C(C)C)cc1` [Example 8, N-[(3R,4R)-4-(2′-ethoxybiphenyl-4-yl)tetrahydro-2H-pyran-3-yl]propane-2-sulfonamide], 0.403 µM.

For `CC(C)S(=O)(=O)N[C@H]1CCCO[C@@H]1c1ccc(-c2ccccc2)cc1` [Example 9, N-[(2R,3S)-2-biphenyl-4-yltetrahydro-2H-pyran-3-yl]propane-2-sulfonamide], the EC50 stood at 4.45 µM.

On to `CCOc1ccccc1-c1ccc([C@@H]2NC(=O)CC[C@H]2NS(=O)(=O)C(C)C)cc1` [Example 10, N-[(2S,3R)-2-(2′-ethoxybiphenyl-4-yl)-6-oxopiperidin-3-yl]propane-2-sulfonamide], for which the concentration giving a half-maximal response (EC50) was above 7.52 µM.

`CC(C)S(=O)(=O)N[C@H]1CCC(=O)N[C@@H]1c1ccc(-c2ccccc2)cc1` [Example 11, N-[(2R,3S)-2-biphenyl-4-yl-6-oxopiperidin-3-yl]propane-2-sulfonamide]: the EC50 was above 31.6 µM.

For the molecule `CC(C)S(=O)(=O)N[C@@H]1CCC(=O)N[C@H]1c1ccc(-c2ccccc2)cc1` [Example 12, N-[(2S,3R)-2-biphenyl-4-yl-6-oxopiperidin-3-yl]propane-2-sulfonamide], the 50% effective concentration (EC50) stood at 12.2 µM.

For the molecule `CC(C)S(=O)(=O)N[C@@H]1COCC[C@@H]1c1ccc(-c2ccccc2)cc1` [Example 13, N-[(3S,4R)-4-biphenyl-4-yltetrahydro-2H-pyran-3-yl]propane-2-sulfonamide], the EC50 is above 31.6 µM. As for `CC(C)S(=O)(=O)N[C@@H]1COCC[C@H]1c1ccc(-c2ccccc2)cc1` [Example 15, N-[(3S,4S)-4-biphenyl-4-yltetrahydro-2H-pyran-3-yl]propane-2-sulfonamide], the EC50 was above 31.6 µM. As for `CC(C)S(=O)(=O)N[C@H]1COCC[C@@H]1c1ccc(-c2ccccc2)cc1` [Example 16, N-[(3R,4R)-4-biphenyl-4-yltetrahydro-2H-pyran-3-yl]propane-2-sulfonamide], the EC50 was found to be 1.84 µM. In the case of `CC(C)S(=O)(=O)N[C@@H]1COCC[C@H]1c1ccc(-c2ccccc2C#N)cc1` [Example 17, N-[(3S,4S)-4-(2′-cyanobiphenyl-4-yl)tetrahydro-2H-pyran-3-yl]propane-2-sulfonamide], the EC50 was above 31.6 µM. On to `CC(C)S(=O)(=O)N[C@H]1COCC[C@@H]1c1ccc(-c2ccccc2C#N)cc1` [Example 18, N-[(3R,4R)-4-(2′-cyanobiphenyl-4-yl)tetrahydro-2H-pyran-3-yl]propane-2-sulfonamide], for which the 50% effective concentration (EC50) was 0.415 µM. As to `CC(C)S(=O)(=O)N[C@@H]1COCC[C@H]1c1ccc(-c2ccc(C#N)s2)cc1` [Example 19, N-{(3S,4S)-4-[4-(5-cyano-2-thienyl)phenyl]tetrahydro-2H-pyran-3-yl}propane-2-sulfonamide], the EC50 was above 31.6 µM. Consider `CC(C)S(=O)(=O)N[C@H]1COCC[C@@H]1c1ccc(-c2ccc(C#N)s2)cc1` [Example 20, N-{(3R,4R)-4-[4-(5-cyano-2-thienyl)phenyl]tetrahydro-2H-pyran-3-yl}propane-2-sulfonamide], for which the concentration for a half-maximal effect (EC50) is 9.79 µM.

As to `CC(C)S(=O)(=O)N[C@@H]1CCOC[C@@H]1c1ccc(-c2ccc(C#N)s2)cc1` [Example 21, N-{(3R,4R)-3-[4-(5-cyano-2-thienyl)phenyl]tetrahydro-2H-pyran-4-yl}propane-2-sulfonamide], the EC50 was above 31.6 µM.

Take `CC(C)S(=O)(=O)N[C@H]1CCOC[C@H]1c1ccc(-c2ccccc2C#N)cc1` [Example 22, N-[(3S,4S)-3-(2′-cyanobiphenyl-4-yl)tetrahydro-2H-pyran-4-yl]propane-2-sulfonamide]: the EC50 stood at 0.429 µM. For `CC(C)S(=O)(=O)N[C@@H]1CCOC[C@@H]1c1ccc(-c2ccccc2C#N)cc1` [Example 23, N-[(3R,4R)-3-(2′-cyanobiphenyl-4-yl)tetrahydro-2H-pyran-4-yl]propane-2-sulfonamide], the EC50 was 10.3 µM. Regarding `CC(C)S(=O)(=O)N[C@H]1CCOC[C@H]1c1ccc(-c2ccc(F)cc2C#N)cc1` [Example 24, N-[(3S,4S)-3-(2′-cyano-4′-fluorobiphenyl-4-yl)tetrahydro-2H-pyran-4-yl]propane-2-sulfonamide], the concentration giving a half-maximal response (EC50) turned out to be 0.378 µM. For `CC(C)S(=O)(=O)N[C@H]1CCOC[C@H]1c1ccc(-c2ccccc2)cc1` [Example 25, N-[(3S,4S)-3-biphenyl-4-yltetrahydro-2H-pyran-4-yl]propane-2-sulfonamide], the EC50 is 0.684 µM. In the case of `CC(C)S(=O)(=O)N[C@@H]1CCOC[C@@H]1c1ccc(-c2ccccc2)cc1` [Example 26, N-[(3R,4R)-3-biphenyl-4-yltetrahydro-2H-pyran-4-yl]propane-2-sulfonamide], the 50% effective concentration (EC50) was above 31.6 µM.

Turning to `CCOc1ccccc1-c1ccc([C@@H]2COCC[C@@H]2NS(=O)(=O)C(C)C)cc1` [Example 27, N-[(3S,4S)-3-(2′-ethoxybiphenyl-4-yl)tetrahydro-2H-pyran-4-yl]propane-2-sulfonamide], the EC50 came out at 0.32 µM. With `CCOc1ccccc1-c1ccc([C@H]2COCC[C@H]2NS(=O)(=O)C(C)C)cc1` [Example 28, N-[(3R,4R)-3-(2′-ethoxybiphenyl-4-yl)tetrahydro-2H-pyran-4-yl]propane-2-sulfonamide], the EC50 is above 31.6 µM. Take `CC(C)S(=O)(=O)N[C@H]1CCOC[C@H]1c1ccc(-c2ccc(C#N)cc2)cc1` [Example 29, N-[(3S,4S)-3-(4′-cyanobiphenyl-4-yl)tetrahydro-2H-pyran-4-yl]propane-2-sulfonamide]: the concentration for a half-maximal effect (EC50) was 4.04 µM. Turning to `CC(C)S(=O)(=O)N[C@@H]1CCOC[C@@H]1c1ccc(-c2ccc(C#N)cc2)cc1` [Example 30, N-[(3R,4R)-3-(4′-cyanobiphenyl-4-yl)tetrahydro-2H-pyran-4-yl]propane-2-sulfonamide], the half-maximal effective concentration (EC50) is above 31.6 µM.
